Earlier results on one compound are cited in patent US20090118350A1, “Biomarkers for Identifying Efficacy of Tegaserod in Patients with Chronic Constipation” (priority 2005, published 2009).

In series [1] the test system is chronic constipation patients. To be noted: chronic constipation patients across North and South America; Johanson et al. 2004; cited from earlier work.
The test system of series [2] is healthy volunteers, patients with IBS-C, patients with chronic constipation. To be noted: cited from earlier work.

Where two headings read alike, the source gives them in different places.

Regarding `[H]/N=C(/NCCCCC)N/N=C/c1c[nH]c2ccc(OC)cc12` [tegaserod, Tegaserod], the response rate in series [1] is given as 43%. Besides, the colonic transit time result in series [2] (healthy volunteers (Degen et al. 2001)), in series [2] (patients with IBS-C (Prather et al. 2000)) and in series [2] (patients with chronic constipation (Johanson et al. 2004)) was “significantly increase colonic transit time” in each case.
